From US10131652B2, “Pyrimidinyloxy benzene derivatives as herbicides” (E. I. DU PONT DE NEMOURS AND COMPANY, priority 2014, dated 2018)

Tests used:
Format in all cases: in vivo
[1] = test system: chickweed (common chickweed, Stellaria media); test: Test D postemergence plant response; settings: for Chickweed plant response rating: scale 0 to 100 (0 no effect, 100 complete control); for Plant response rating, Chickweed: scale 0 to 100, 0 no effect, 100 complete control
Excerpt: (§1) At the same time, plants selected from these crop and weed species and also kochia (Kochia scoparia), wild oat (Avena fatua), and chickweed (common chickweed, Stellaria media) were planted in pots containing Redi-Earth® planting medium (Scotts Company, 14111 Scottslawn Road, Marysville, Ohio 43041) comprising spaghnum peat moss, vermiculite, wetting agent and starter nutrients and treated with postemergence applications of test chemicals formulated in the same manner. Plants ranged in height from 2 to 18 cm (1- to 4-leaf stage) for postemergence treatments. Treated plants and controls were maintained in a greenhouse for 13 to 15 days, after which time all species were compared to controls and visually evaluated. Plant response ratings, summarized in Table D, are based on a scale of 0 to 100 where 0 is no effect and 100 is complete control. A dash (-) response means no test result.

kochia (Kochia scoparia) = test: Test D postemergence plant response; settings: for Kochia plant response rating: scale 0 to 100 (0 no effect, 100 complete control); for Plant response rating, Kochia: scale 0 to 100, 0 no effect, 100 complete control
Excerpt: as §1

wild oat (Avena fatua) = test: Test D postemergence plant response
Excerpt: as §1

[2] = test system: galium (catchweed bedstraw, Galium aparine); test: Test B postemergence plant response
Summary of the method: (§2)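 Injury was assessed visually about 10 days after treatment, scored from 0 (no effect) to 100 (complete control) by comparison with untreated controls. Test chemicals had been applied postemergence to potted plants at the one- to two-leaf stage, grown in loam soil and sand in a greenhouse.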

[3] = test system: blackgrass (Alopecurus myosuroides); test: Test B postemergence plant response
Summary of the method: as §2

[4] = 16 g ai/ha, scale 0 to 100 (0 no effect, 100 complete control)
[5] = 31 g ai/ha, scale 0 to 100 (0 no effect, 100 complete control)
[6] = 62 g ai/ha, scale 0 to 100, 0 no effect, 100 complete control
[7] = 125 g ai/ha, scale 0 to 100, 0 no effect, 100 complete control
[8] = 125 g ai/ha, postemergence, 0 to 100 scale, 0 no effect, 100 complete control
[9] = Postemergence, 500 g ai/ha, 0 to 100 scale (0 no effect, 100 complete control)
[10] = 31 g ai/ha, Postemergence, 0 to 100 scale, 0 no effect, 100 complete control
[11] = Postemergence, 31 g ai/ha, 0 to 100 scale (0 no effect, 100 complete control)

SMILES	Chickweed plant response rating ([1]; 16 g ai/ha)	Chickweed plant response rating ([1]; 31 g ai/ha)	Plant response rating, Chickweed ([1]; 62 g ai/ha)	Plant response rating, Chickweed ([1]; 125 g ai/ha)	Kochia plant response rating (kochia (Kochia scoparia); 16 g ai/ha)	Kochia plant response rating (kochia (Kochia scoparia); 31 g ai/ha)	Plant response rating, Kochia (kochia (Kochia scoparia); 62 g ai/ha)	Plant response rating, Kochia (kochia (Kochia scoparia); 125 g ai/ha)	Oat, Wild plant response rating (wild oat (Avena fatua); [4])	Oat, Wild plant response rating (wild oat (Avena fatua); [5])	Plant response rating, Oat, Wild (wild oat (Avena fatua); [6])	Plant response rating, Oat, Wild (wild oat (Avena fatua); [7])	Plant response rating, Galium [2, 8]	Plant response rating, Galium [2, 9]	Plant response rating, Blackgrass [3, 8]	Plant response rating, Blackgrass [3, 9]	Plant response rating, Blackgrass [3, 10]	other results
Cn1nnc(-c2ccccc2Oc2ncc(Br)cn2)n1 [Compound 50]	0	0	5	5	0	0	5	15	0	0	0	0	90	100	40	60		
FC(F)Oc1cccc(Oc2ncc(Cl)cn2)c1-c1cc(C(F)F)on1 [Compound 131]	65	80	98	100		90	95	100		15	20	35	90		80		50	
FC(Cl)c1cc(-c2ccccc2Oc2ncc(Cl)cn2)no1 (stereo not drawn) [Compound 116]	5	15	30	90	100	100	100	100	5	5	10	15	70		30		20	Plant response rating, Galium [2, 10]: 60
Cc1cc(-c2ccccc2Oc2ncc(Cl)cn2)no1 [Compound 60]	45	50	60	75	50	50	55	90	5	0	0	5	100	100	50	100		
Fc1cccc(Oc2ncc(Cl)cn2)c1-c1cc(C(F)(F)F)no1 [Compound 228]		85	98	100		100	100	100		20		55	100		100			Plant response rating (scale 0 to 100), Chickweed ([1]; 16 g ai/ha): 85; Plant response rating (scale 0 to 100), Kochia (kochia (Kochia scoparia); 16 g ai/ha): 100; Plant response rating (scale 0 to 100), Oat, Wild (wild oat (Avena fatua); 16 g ai/ha): 10; Oat, Wild plant response rating (wild oat (Avena fatua); [6]): 40; Plant response rating, Galium [2, 11]: 100; Plant response rating, Blackgrass [3, 11]: 60
FC(F)(F)c1cc(-c2c(Br)cccc2Oc2ncc(Cl)cn2)no1 [Compound 170]	30	65	90	100		60	85	100		5	5	10	80	100	50	60		
Fc1cccc(Oc2ncc(Br)cn2)c1-c1cc(C(F)F)on1 [Compound 118]	75	70	90	98	95	95	95	100	5	10	15	50	100		100		60	Plant response rating, Galium [2, 10]: 100
FC(F)(Br)c1cc(-c2ccccc2Oc2ncc(Cl)cn2)no1 [Compound 162]	50	60	60	85		100	100	100		5	5	10	90		30			Plant response rating, Galium [2, 11]: 90; Plant response rating, Blackgrass [3, 11]: 30
FC(F)(F)c1cc(-c2c(I)cccc2Oc2ncc(Cl)cn2)no1 [Compound 156]	5	45	70			30	45			0	0		90	100	20	40		Plant response rating (scale 0 to 100), Chickweed ([1]; 8 g ai/ha): 5; Plant response rating (scale 0 to 100), Kochia (kochia (Kochia scoparia); 8 g ai/ha): 0; Plant response rating (scale 0 to 100), Oat, Wild (wild oat (Avena fatua); 8 g ai/ha): 0
